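Results reflect a 48-hour exposure of cells in 96-well plates to compound at five concentrations. GI50 marks 50% less growth.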 Calls of active or inactive are those of the source. Rule as the data show it: active = GI50 up to about 1.1 µM and inactive = higher.
What was measured:
Test in all cases: NCI tumour cell line growth inhibition, 48 h
A498 = system: A498
EKVX = system: EKVX
K562 = system: K562
KM12 = system: KM12
M14 = system: M14
MOLT-4 = system: MOLT-4
Malme-3M = system: Malme-3M
OVCAR-3 = system: OVCAR-3
OVCAR-4 = system: OVCAR-4
OVCAR-8 = system: OVCAR-8
RPMI-8226 = system: RPMI-8226
SF-268 = system: SF-268
SF-539 = system: SF-539
SK-MEL-28 = system: SK-MEL-28
SN12C = system: SN12C
SNB-75 = system: SNB-75
SR = system: SR
TK-10 = system: TK-10
UACC-62 = system: UACC-62
UO-31 = system: UO-31

Row | Compound | GI50 (A498) | GI50 (EKVX) | GI50 (K562) | GI50 (KM12) | GI50 (M14) | GI50 (MOLT-4) | GI50 (Malme-3M) | GI50 (OVCAR-3) | GI50 (OVCAR-4) | GI50 (OVCAR-8) | GI50 (RPMI-8226) | GI50 (SF-268) | GI50 (SF-539) | GI50 (SK-MEL-28) | GI50 (SN12C) | GI50 (SNB-75) | GI50 (SR) | GI50 (TK-10) | GI50 (UACC-62) | GI50 (UO-31)
1 | O=C(O)C(CSC(c1ccccc1)(c1ccccc1)c1ccccc1)/N=C/c1cccs1 (stereo not given) | 30.3 µM (inactive) | 5.42 µM (inactive) | 3.54 µM (inactive) | 2.78 µM (inactive) | 0.378 µM (active) | 4.19 µM (inactive) | 3.6 µM (inactive) | 2.31 µM (inactive) | 15.1 µM (inactive) | 2.55 µM (inactive) | 2.45 µM (inactive) | 2.42 µM (inactive) | 1.27 µM (inactive) | 7.48 µM (inactive) | 3.27 µM (inactive) | 5.48 µM (inactive) | 4.42 µM (inactive) | 10.8 µM (inactive) | 1.17 µM (inactive) | 17.7 µM (inactive)
2 | Cc1cc(C)c2c(O)cc(-c3cccc4ccccc34)nc2n1 | 0.474 µM (active) | 0.975 µM (active) | 0.386 µM (active) | 0.406 µM (active) | 0.745 µM (active) | 0.863 µM (active) | 0.28 µM (active) | 0.263 µM (active) | 4.25 µM (inactive) | 1.14 µM (inactive) | 0.671 µM (active) | 2.58 µM (inactive) | 0.703 µM (active) | 10.8 µM (inactive) | 2.78 µM (inactive) | 0.317 µM (active) | 0.342 µM (active) | > 32.4 µM (inactive) | 0.349 µM (active) | 3.09 µM (inactive)
3 | COc1cc(C(=O)CC2OC(=O)C(Cl)=C2Cl)ccc1Cl (stereo not given) | > 100 µM (inactive) | > 100 µM (inactive) | > 100 µM (inactive) | > 100 µM (inactive) | > 100 µM (inactive) | > 100 µM (inactive) | > 100 µM (inactive) | > 100 µM (inactive) | > 100 µM (inactive) | > 100 µM (inactive) | > 100 µM (inactive) | > 100 µM (inactive) | > 100 µM (inactive) | > 100 µM (inactive) | > 100 µM (inactive) | > 100 µM (inactive) | > 100 µM (inactive) | > 100 µM (inactive) | > 100 µM (inactive) | > 100 µM (inactive)
4 | CC(C)OP(=O)(OC(C)C)/C(F)=N/Nc1ccc([N+](=O)[O-])cc1 | > 100 µM (inactive) | > 100 µM (inactive) | > 100 µM (inactive) | 91.2 µM (inactive) | > 100 µM (inactive) | > 100 µM (inactive) | > 100 µM (inactive) | > 100 µM (inactive) | > 100 µM (inactive) | > 100 µM (inactive) | > 100 µM (inactive) | > 100 µM (inactive) | > 100 µM (inactive) | > 100 µM (inactive) | > 100 µM (inactive) | 38.7 µM (inactive) | > 100 µM (inactive) | > 100 µM (inactive) | > 100 µM (inactive) | > 100 µM (inactive)
5 | CN(N=O)c1nc2c(C(N)=O)ncn2s1 | > 100 µM (inactive) | > 100 µM (inactive) | 48.4 µM (inactive) | > 100 µM (inactive) | 15.7 µM (inactive) | > 100 µM (inactive) | 85.7 µM (inactive) | 87.1 µM (inactive) | 47.9 µM (inactive) | 30.5 µM (inactive) | 45 µM (inactive) | 55.5 µM (inactive) | 80.7 µM (inactive) | > 100 µM (inactive) | 97.7 µM (inactive) | 49 µM (inactive) | 48.9 µM (inactive) | 20 µM (inactive) | 32.7 µM (inactive) | 22.2 µM (inactive)
6 | CC(=O)c1ccc(NC(=O)/C(CC(=O)/C=C/c2ccccc2)=N/NC(N)=S)cc1 | > 100 µM (inactive) | 47.2 µM (inactive) | 75.3 µM (inactive) | 44.4 µM (inactive) | > 100 µM (inactive) | 46.5 µM (inactive) | > 100 µM (inactive) | > 100 µM (inactive) | 49.5 µM (inactive) | 87.7 µM (inactive) | 69.3 µM (inactive) | > 100 µM (inactive) | > 100 µM (inactive) | > 100 µM (inactive) | > 100 µM (inactive) | > 100 µM (inactive) | > 100 µM (inactive) | > 100 µM (inactive) | > 100 µM (inactive) | 41.1 µM (inactive)

Source: ChEMBL document CHEMBL1201862, “PubChem BioAssay data set” (2004)
